Test results reported in patent US9539301B2, “Melanotropin ligands for skin care” (THE ARIZONA BOARD OF REGENTS ON BEHALF OF THE UNIVERSITY OF …, priority 2011, dated 2017).
pEC50, pKi: −log10 of the molar value. Entries after “also recorded” stand apart in the source; their conditions may differ. Square brackets hold non-standard residues; d marks the D form. Peptide text beside a SMILES is read from it. d2Nal = N[C@H](Cc1ccc2ccccc2c1)C(=O)O; Nle = CCCC[C@H](N)C(=O)O

Assays:
MC1R = MC1R (Homo sapiens, UniProt Q01726); conditions: cited from earlier work
MC1R, sequence (Q01726 whole entry): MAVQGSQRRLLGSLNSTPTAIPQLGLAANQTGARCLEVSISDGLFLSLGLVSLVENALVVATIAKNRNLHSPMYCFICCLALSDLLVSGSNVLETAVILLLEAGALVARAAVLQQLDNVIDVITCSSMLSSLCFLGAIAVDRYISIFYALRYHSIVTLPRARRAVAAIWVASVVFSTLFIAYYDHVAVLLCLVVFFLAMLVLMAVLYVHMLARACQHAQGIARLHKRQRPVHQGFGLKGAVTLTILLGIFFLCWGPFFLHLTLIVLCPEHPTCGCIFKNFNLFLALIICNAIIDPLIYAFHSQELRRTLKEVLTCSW

MC5R = MC5R (Homo sapiens, UniProt P33032); conditions: footnote: value denotes an EC50; read-out: EC50 MC5R (values derived from literature); cited from earlier work
MC5R, sequence (P33032 whole entry): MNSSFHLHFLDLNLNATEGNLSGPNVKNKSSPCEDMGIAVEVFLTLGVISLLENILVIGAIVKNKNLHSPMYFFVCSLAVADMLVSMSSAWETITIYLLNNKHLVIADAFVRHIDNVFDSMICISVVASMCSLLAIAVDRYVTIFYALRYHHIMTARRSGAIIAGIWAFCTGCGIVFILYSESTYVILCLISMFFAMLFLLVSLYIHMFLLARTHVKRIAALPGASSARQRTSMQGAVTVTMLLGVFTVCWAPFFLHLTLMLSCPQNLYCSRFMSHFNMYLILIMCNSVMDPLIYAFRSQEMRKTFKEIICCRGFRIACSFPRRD

MC4R = MC4R (Homo sapiens, UniProt P32245); conditions: footnote: value denotes an EC50; read-out: EC50 MC4R (values derived from literature); cited from earlier work
MC4R, sequence (P32245 whole entry): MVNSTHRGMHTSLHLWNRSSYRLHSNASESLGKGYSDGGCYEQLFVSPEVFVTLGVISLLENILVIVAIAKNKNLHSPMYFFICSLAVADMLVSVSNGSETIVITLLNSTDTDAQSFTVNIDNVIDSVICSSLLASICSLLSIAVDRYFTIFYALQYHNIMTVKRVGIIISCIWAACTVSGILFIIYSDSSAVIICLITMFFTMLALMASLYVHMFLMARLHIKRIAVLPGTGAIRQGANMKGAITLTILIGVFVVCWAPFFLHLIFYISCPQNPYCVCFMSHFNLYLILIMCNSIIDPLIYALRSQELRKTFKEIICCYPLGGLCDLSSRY

[1] = mouse, in vivo, iv, 5 nmol/kg
Description: (§1) Tumors, kidneys and liver were excised, rinsed with PBS, blotted dry, and then imaged ex vivo with Optix-MX3 as described above. Images were analyzed as described above.
(§2) The pharmacokinetics of probe uptake and clearance was also characterized using a three-compartment mathematical model, which includes tumor, kidney and mouse volumes, and assumes mass conservation of the ligand. This model was used to account for the interference of the tumor ligand release in the uptake and clearance dynamics of blood and kidneys.

[2] = test system: A375/MC1R and A375 xenograft tumors; assay: Tumor xenograft fluorescence imaging, in vivo tumor targeting and blocking; set-up: species or system nu/nu mice
Description: Female nu/nu mice 6-8 weeks old (Harlan Sprague Dawley, Inc., Indianapolis, Ind.) were injected subcutaneously (s.c.) with 1×10^6 MC1R expressing A375 cells in the right and the parental one in the left flank. Tumor volume was determined with calipers using the formula: volume=(length×width^2)/2. Once tumors reached 500-800 mm^3, 1 nmol/kg-30 nmol/kg of MC1R imaging probe in 100 µL sterile saline was injected into the tail vein. In vivo fluorescence images were acquired using the Optix-MX3 (Advance Research Technologies, Inc. a subsidiary of SoftScan Healthcare Group, Montreal, Canada). Animals were positioned on a heating pad and anesthetized using isoflurane (flow 2-2.5 l/min). Fluorescence images were acquired using a scan resolution of 1.5 mm and a 790-nm pulsed laser diode with 40 MHz frequency and 12-ns time window. Images were analyzed using Optix-MX3 Optiview Software (version 3.01). Autofluorescence background was subtracted by determining the mean tumor fluorescence signal prior to injection, then mean normalized intensity values were obtained within a ROI on these images.
Tumors were excised and center slice of each tumor was imaged using both Optix-MX3 (as described above) and IVIS 200 imaging system (Caliper LifeSciences, MA). For IVIS 200 acquisitions, the standard ICG excitation and emission filter set was used for imaging. After imaging, the slices were fixed in formalin and embedded in paraffin for histology. Formalin fixed sections (5 µm) were stained with hematoxylin and eosin (H&E). […]
To investigate tumor targeting of the probe in vivo, bilateral subcutaneous xenograft tumors were established with A375/MC1R engineered cells in the right flank, and A375 parental cells with relatively low MC1R expression in the left flank. After tumor growth to approximately 500-800 mm^3, MC1RL-800 was injected intravenously and fluorescence accumulation was monitored over time. […] IHC staining confirmed the high and low MC1R expression in the two tumor types, and areas with the highest IHC staining corresponded to areas with the highest fluorescence signal (FIG. 27B).

[3] = mouse, in vivo
Description: as §1, §2

A375/MC1R cells = assay: In vitro MC1R probe uptake study (fluorescence microscopy); assay type: cell-based, human
Description: Samples were viewed using an Axio Observer Z1 inverted fluorescence microscope (Carl Zeiss, Inc, Germany) using 40×/1.3NA oil immersion objectives through a narrow band Cy5 filter. Cy5 fluorescence images were prepared with a DIC overlay image using Axiovision 4.6 software (Carl Zeiss, Inc, Germany).
To study uptake of the MC1R probe onto and into cells, MC1RL-800 probe was incubated with live cells and images were acquired at different time-points after incubation using an inverted microscope.

[4] = assay type: physicochemical; conditions: pH 7.4
Description: The log of the octanol-water partition coefficient at pH 7.4 (log D7.4) was determined by miniaturised shake flask assay. Briefly, (200 µL to 1 mL) n-octanol (Sigam) was added to a solution of the test compound prepared in PBS (25 mM NaH2PO4/Na2HPO4 buffer, pH 7.4, Sigma, HPLC grade). Then, three different ratios of octanol to PBS buffer were prepared. The mixture was stirred in a vortex mixer at room temperature for 1 min and then two layers were separated by centrifuge. The concentration of compound in each layer was determined by HPLC (Poroshell 120 EC-C18 column) using (26% acetonitrile in water, 0.1% TFA) in 280 nm channel. All sample injections were performed 3 times, and the results were averaged to yield the final values.
To measure lipophilicity of the probe, log D (distribution co-efficient) was determined.

[5] = co-injection 0.25 μg NDP-a-MSH with 5 nmol/kg probe, 2 hr
[6] = A375/MC1R cells, after incubation

## NC(=O)[C@H](Cc1c[nH]c2ccccc12)NC(=O)[C@H](CCCN=C(N)N)NC(=O)[C@@H](Cc1ccccc1)NC(=O)[C@H](Cc1cnc[nH]1)NC(=O)CCCc1ccccc1 [Compound 1, 4-phenylbutyryl-His-DPhe-Arg-Trp-NH2]
MC1R; read-out: Ki MC1R (values derived from literature)
  pKi: 11.00

## CCCC[C@H](NC(=O)[C@@H](NC(=O)[C@@H](N)Cc1ccc(O)cc1)C(C)C)C(=O)NCC(=O)N[C@@H](Cc1cnc[nH]1)C(=O)N[C@H](Cc1ccc2ccccc2c1)C(=O)N[C@@H](CCCNC(=N)N)C(=O)N[C@H](Cc1ccccc1)C(=O)N[C@@H](CC(=O)O)C(=O)N[C@@H](CCCNC(=N)N)C(=O)N[C@@H](Cc1ccccc1)C(=O)NCC(N)=O [Compound 7, H-Tyr-Val-Nle-Gly-His-DNal(2′)-Arg-DPhe-Asp-Arg-Phe-Gly-NH2] (H-YV[Nle]GH[d2Nal]R[dF]DRFG-NH2)
MC1R; footnote: value denotes an EC50, read-out: EC50 MC1R (values derived from literature)
  pEC50: 8.80
MC5R
  pEC50: 8.48
MC4R
  pEC50: 7.70

## CC1(C)C(=CC=C2CCCC(C=CC3=[N+](CCCCCC(=O)NCCN4C(=O)CC(SCCC(=O)NCCCC[C@H](NC(=O)CNC(=O)[C@H](Cc5c[nH]c6ccccc56)NC(=O)[C@H](CCCNC(=N)N)NC(=O)[C@@H](Cc5ccccc5)NC(=O)[C@H](Cc5c[nH]cn5)NC(=O)CCCc5ccccc5)C(N)=O)C4=O)c4ccc(S(=O)(=O)[O-])cc4C3(C)C)=C2Oc2ccc(S(=O)(=O)O)cc2)N(CCCCS(=O)(=O)O)c2ccc(S(=O)(=O)O)cc21 (stereo partly drawn) [MC1RL-800, 4-phenylbutyryl-His-DPhe-Arg-Trp-Gly-Lys(Mpr-IR800CW)-NH2]
[1]
  half-life: ~10 h
[2]; 2 h post-injection, n=3
  normalized fluorescence signal of A375 (low MC1R) tumors compared to A375/MC1R tumors: significantly lower
[2]; [5]
  decrease of probe fluorescence signal after blocking, A375/MC1R tumors: 1.54 fold
  decrease of probe fluorescence signal after blocking, A375 tumor: 1.4 fold
[3]
  accumulation in the liver: did not accumulate
  kidney signal relative to tumor: 2 fold
A375/MC1R cells; 2 μM NDP-α-MSH added before probe
  probe binding after blocking with NDP-α-MSH: No attachment; also recorded: No binding or uptake
A375/MC1R cells; [6]
  time at which binding of probe to cell surface is observed: ≤ 15 s
  time of intracellular accumulation / internalization: ≤ 5 min
[4]
  logD: -2.96
